Columns and labels:
[1] = molecular target: Metabotropic glutamate receptor 2 (Rattus norvegicus, UniProt P31421); test: (§1) Negative allosteric modulation of rat mGlu2R expressed in HEK293 cells co-expressing Galpha15 assessed as decrease in glutamate-induced calcium mobilization preincubated for 2.3 mins followed by glutamate addition and measured after 1.7 mins by Fluo-4-AM dye based fluorescence assay; assay type: functional, cell-based
[2] = molecular target: Metabotropic glutamate receptor 2 (Rattus norvegicus) (UniProt P31421); test: as §1, with “mobilization at 30 uM” for “mobilization”, “assay relative to control” for “assay”; assay type: functional, cell-based
[3] = Fraction unbound in rat plasma after 4 hrs by equilibrium dialysis method; assay type: ADME, cell-free
[4] = Fraction unbound in human plasma after 4 hrs by equilibrium dialysis method; assay type: ADME, cell-free
[5] = Fraction unbound in rat brain; assay type: ADME, tissue-based
[6] = Brain to plasma partition coefficient, Kp of the compound in Sprague-Dawley rat at 0.2 mg/kg, iv administered as cassette dose by LC-MS/MS analysis; assay type: ADME, organism-based; conditions: brain and plasma
[7] = Unbound brain to plasma ratio in Sprague-Dawley rat at 0.2 mg/kg, iv administered as cassette dose by LC-MS/MS analysis; assay type: ADME, organism-based; conditions: brain and plasma, read-out: K(p,uu,brain)
[8] = Plasma clearance in Sprague-Dawley rat at 0.2 mg/kg, iv administered as cassette dose by LC-MS/MS analysis; assay type: ADME, organism-based
[9] = Half life in Sprague-Dawley rat at 0.2 mg/kg, iv administered as cassette dose by LC-MS/MS analysis; assay type: ADME, organism-based; conditions: in vivo
[10] = Volume of distribution at steady state in Sprague-Dawley rat at 0.2 mg/kg, iv administered as cassette dose by LC-MS/MS analysis; assay type: ADME, organism-based; conditions: in vivo, read-out: Vdss
[11] = Plasma clearance in Sprague-Dawley rat at 1 mg/kg, iv by LC-MS/MS analysis; assay type: ADME, organism-based
[12] = Half life in Sprague-Dawley rat at 1 mg/kg, iv by LC-MS/MS analysis; assay type: ADME, organism-based; conditions: in vivo
[13] = Volume of distribution at steady state in Sprague-Dawley rat at 1 mg/kg, iv by LC-MS/MS analysis; assay type: ADME, organism-based; conditions: in vivo, read-out: Vdss
[14] = molecular target: Metabotropic glutamate receptor 3 (Rattus norvegicus, UniProt P31422); test: Negative allosteric modulation of rat mGlu3R expressed in Trex cells co-expressing Galpha15 assessed as decrease in glutamate-induced calcium mobilization preincubated for 2.3 mins followed by glutamate addition and measured after 2.6 mins by Fluo-4-AM dye based fluorescence assay; assay type: functional, cell-based
Chain of Metabotropic glutamate receptor 3 (P31422 whole entry): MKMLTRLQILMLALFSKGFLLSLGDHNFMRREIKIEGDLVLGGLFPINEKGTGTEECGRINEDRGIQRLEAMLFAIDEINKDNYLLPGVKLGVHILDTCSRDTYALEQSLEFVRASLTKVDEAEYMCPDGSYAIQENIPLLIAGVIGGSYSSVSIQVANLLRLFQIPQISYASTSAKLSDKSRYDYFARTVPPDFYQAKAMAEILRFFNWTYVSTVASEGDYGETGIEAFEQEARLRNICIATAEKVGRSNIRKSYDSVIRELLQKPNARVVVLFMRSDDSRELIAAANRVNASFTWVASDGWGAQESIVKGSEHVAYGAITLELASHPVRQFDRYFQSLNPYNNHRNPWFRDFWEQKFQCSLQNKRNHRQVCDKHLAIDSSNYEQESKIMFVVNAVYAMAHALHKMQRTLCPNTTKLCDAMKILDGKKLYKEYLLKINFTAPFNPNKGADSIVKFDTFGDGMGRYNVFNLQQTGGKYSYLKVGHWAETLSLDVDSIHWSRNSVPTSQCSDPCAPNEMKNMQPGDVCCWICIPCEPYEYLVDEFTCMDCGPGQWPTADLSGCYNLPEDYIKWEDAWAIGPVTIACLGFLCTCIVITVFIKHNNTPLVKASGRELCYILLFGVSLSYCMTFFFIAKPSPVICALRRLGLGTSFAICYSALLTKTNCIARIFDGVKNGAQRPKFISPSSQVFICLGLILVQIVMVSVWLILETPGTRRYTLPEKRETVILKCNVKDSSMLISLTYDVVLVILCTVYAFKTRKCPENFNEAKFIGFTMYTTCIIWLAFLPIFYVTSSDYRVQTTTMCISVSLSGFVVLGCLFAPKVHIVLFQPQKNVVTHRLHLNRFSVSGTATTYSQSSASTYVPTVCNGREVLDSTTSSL

[15] = molecular target: Metabotropic glutamate receptor 1 (Homo sapiens, UniProt Q13255); test: Negative allosteric modulation of human mGlu1R expressed in Trex293 cells assessed as decrease in glutamate-induced calcium mobilization preincubated for 2.3 mins followed by glutamate addition and measured after 2.6 mins by Fluo-4-AM dye based fluorescence assay; assay type: functional, cell-based
[16] = molecular target: Metabotropic glutamate receptor 5 (Homo sapiens, UniProt P41594); test: Negative allosteric modulation of human mGlu5R expressed in Trex293 cells assessed as decrease in glutamate-induced calcium mobilization preincubated for 2.3 mins followed by glutamate addition and measured after 2.6 mins by Fluo-4-AM dye based fluorescence assay; assay type: functional, cell-based
Chain of Metabotropic glutamate receptor 5 (P41594 whole entry): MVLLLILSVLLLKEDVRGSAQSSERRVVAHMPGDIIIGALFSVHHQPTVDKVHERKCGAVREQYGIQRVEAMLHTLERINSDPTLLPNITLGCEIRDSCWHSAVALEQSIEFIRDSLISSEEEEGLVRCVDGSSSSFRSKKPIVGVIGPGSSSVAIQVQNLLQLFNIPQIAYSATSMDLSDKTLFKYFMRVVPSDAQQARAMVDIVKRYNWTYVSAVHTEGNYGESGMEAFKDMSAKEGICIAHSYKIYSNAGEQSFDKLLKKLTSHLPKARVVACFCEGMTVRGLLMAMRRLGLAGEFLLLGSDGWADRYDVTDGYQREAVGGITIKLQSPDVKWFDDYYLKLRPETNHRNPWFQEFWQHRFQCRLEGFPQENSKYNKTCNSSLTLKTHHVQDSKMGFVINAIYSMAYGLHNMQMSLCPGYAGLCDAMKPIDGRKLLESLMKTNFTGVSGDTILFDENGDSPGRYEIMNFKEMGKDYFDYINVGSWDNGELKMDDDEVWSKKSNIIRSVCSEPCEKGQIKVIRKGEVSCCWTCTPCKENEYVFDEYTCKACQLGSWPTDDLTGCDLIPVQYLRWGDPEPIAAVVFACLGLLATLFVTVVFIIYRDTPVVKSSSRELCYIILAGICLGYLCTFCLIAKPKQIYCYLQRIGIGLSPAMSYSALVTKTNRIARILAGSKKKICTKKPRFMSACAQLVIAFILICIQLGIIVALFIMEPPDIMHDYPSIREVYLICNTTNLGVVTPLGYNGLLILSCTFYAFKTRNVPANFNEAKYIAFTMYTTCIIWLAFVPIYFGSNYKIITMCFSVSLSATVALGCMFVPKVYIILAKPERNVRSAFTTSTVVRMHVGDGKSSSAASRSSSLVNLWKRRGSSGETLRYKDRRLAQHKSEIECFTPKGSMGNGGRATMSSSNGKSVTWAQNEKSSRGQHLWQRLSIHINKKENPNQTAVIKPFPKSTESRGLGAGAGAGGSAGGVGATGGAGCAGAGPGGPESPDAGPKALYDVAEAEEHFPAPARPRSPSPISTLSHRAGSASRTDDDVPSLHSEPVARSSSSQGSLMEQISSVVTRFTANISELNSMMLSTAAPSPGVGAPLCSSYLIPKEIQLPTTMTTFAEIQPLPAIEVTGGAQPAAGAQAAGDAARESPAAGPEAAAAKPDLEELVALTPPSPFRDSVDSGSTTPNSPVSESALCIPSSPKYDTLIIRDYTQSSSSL

[17] = molecular target: Metabotropic glutamate receptor 4 (Rattus norvegicus, UniProt P31423); test: Negative allosteric modulation of rat mGlu4 receptor expressed in HEK cells harboring GIRK assessed as reduction in glutamate-induced thallium flux preincubated for 2.3 mins followed by glutamate addition measured after 2.6 mins by BTC-AM-dye based fluorescence assay; assay type: cell-based
[18] = molecular target: Metabotropic glutamate receptor 6 (Homo sapiens, UniProt O15303); test: Negative allosteric modulation of human mGlu6 receptor expressed in HEK cells harboring GIRK assessed as reduction in glutamate-induced thallium flux preincubated for 2.3 mins followed by glutamate addition measured after 2.6 mins by BTC-AM-dye based fluorescence assay; assay type: cell-based
Chain of Metabotropic glutamate receptor 6 (O15303 whole entry): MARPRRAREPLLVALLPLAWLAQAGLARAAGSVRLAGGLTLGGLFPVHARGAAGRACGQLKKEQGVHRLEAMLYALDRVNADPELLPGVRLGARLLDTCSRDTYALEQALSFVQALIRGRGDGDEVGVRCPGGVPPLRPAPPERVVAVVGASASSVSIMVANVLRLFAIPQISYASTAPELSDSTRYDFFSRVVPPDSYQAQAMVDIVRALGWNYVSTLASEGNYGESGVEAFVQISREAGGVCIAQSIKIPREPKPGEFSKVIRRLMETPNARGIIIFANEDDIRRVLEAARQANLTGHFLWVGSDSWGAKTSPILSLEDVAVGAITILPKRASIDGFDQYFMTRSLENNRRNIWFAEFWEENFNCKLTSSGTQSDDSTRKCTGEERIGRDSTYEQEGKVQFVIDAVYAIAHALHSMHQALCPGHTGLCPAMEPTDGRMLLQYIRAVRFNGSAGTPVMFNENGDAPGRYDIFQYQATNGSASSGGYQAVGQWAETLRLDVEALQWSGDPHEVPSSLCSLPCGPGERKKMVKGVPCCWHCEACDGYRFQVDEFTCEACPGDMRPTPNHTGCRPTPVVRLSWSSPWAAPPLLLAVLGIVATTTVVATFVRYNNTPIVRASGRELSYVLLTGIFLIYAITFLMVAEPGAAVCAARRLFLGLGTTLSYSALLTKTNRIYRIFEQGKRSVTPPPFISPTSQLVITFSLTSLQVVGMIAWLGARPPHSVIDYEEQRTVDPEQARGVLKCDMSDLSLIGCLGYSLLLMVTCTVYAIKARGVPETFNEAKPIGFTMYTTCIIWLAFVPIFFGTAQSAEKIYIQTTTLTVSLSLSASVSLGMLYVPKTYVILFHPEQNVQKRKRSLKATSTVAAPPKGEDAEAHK

[19] = molecular target: Metabotropic glutamate receptor 7 (Rattus norvegicus, UniProt P35400); test: Negative allosteric modulation of rat mGlu7 receptor expressed in HEK cells harboring GIRK assessed as reduction in […]-induced thallium flux preincubated for 2.3 mins followed by […] addition measured after 2.6 mins by BTC-AM-dye based fluorescence assay; assay type: cell-based
[20] = molecular target: Metabotropic glutamate receptor 8 (Rattus norvegicus, UniProt P70579); test: Negative allosteric modulation of rat mGlu8 receptor expressed in HEK cells harboring GIRK assessed as reduction in glutamate-induced thallium flux preincubated for 2.3 mins followed by glutamate addition measured after 2.6 mins by BTC-AM-dye based fluorescence assay; assay type: cell-based
Chain of Metabotropic glutamate receptor 8 (P70579 whole entry): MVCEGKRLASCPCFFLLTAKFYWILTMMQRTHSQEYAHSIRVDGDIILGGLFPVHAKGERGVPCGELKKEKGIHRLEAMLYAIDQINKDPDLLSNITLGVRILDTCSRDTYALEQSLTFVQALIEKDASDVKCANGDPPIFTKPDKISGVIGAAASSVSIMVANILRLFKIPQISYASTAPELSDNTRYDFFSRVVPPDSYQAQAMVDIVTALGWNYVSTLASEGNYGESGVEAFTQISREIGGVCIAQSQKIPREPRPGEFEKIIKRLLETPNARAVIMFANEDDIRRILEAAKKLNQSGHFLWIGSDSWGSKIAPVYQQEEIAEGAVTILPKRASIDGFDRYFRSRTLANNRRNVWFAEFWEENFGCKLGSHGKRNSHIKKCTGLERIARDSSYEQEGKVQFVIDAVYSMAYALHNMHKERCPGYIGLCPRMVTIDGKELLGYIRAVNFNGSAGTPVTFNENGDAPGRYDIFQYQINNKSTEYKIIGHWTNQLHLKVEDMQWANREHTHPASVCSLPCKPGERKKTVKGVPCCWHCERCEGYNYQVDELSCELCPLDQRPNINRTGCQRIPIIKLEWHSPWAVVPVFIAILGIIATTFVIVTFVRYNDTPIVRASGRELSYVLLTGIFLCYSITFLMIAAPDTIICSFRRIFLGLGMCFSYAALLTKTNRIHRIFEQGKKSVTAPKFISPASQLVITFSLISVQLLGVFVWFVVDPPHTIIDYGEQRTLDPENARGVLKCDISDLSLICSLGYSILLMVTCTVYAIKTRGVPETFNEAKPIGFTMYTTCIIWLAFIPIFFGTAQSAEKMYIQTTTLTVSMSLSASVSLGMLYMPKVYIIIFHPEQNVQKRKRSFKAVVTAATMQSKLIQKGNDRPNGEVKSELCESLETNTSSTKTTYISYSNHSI

[21] = Cmax in Sprague-Dawley rat plasma at 10 mg/kg, ip by LC-MS/MS analysis; assay type: ADME, organism-based; set-up: dose 10 mg/kg, route intraperitoneal
[22] = AUC in Sprague-Dawley rat plasma at 10 mg/kg, ip by LC-MS/MS analysis; assay type: ADME, organism-based; conditions: in vivo
[23] = Cmax in Sprague-Dawley rat brain at 10 mg/kg, ip by LC-MS/MS analysis; assay type: ADME, organism-based; set-up: dose 10 mg/kg, route intraperitoneal
[24] = AUC in Sprague-Dawley rat brain at 10 mg/kg, ip by LC-MS/MS analysis; assay type: ADME, organism-based; conditions: in vivo
[25] = Ratio of AUC in brain to plasma of Sprague-Dawley rat at 10 mg/kg, ip by LC-MS/MS analysis; assay type: ADME, organism-based; conditions: brain and plasma, read-out: Ratio AUC
[26] = Unbound Cmax in Sprague-Dawley rat brain at 10 mg/kg, ip by LC-MS/MS analysis; assay type: ADME, organism-based; conditions: in vivo
[27] = Unbound AUC in Sprague-Dawley rat brain at 10 mg/kg, ip by LC-MS/MS analysis; assay type: ADME, organism-based; conditions: in vivo

Chain of Metabotropic glutamate receptor 2 (P31421 whole entry): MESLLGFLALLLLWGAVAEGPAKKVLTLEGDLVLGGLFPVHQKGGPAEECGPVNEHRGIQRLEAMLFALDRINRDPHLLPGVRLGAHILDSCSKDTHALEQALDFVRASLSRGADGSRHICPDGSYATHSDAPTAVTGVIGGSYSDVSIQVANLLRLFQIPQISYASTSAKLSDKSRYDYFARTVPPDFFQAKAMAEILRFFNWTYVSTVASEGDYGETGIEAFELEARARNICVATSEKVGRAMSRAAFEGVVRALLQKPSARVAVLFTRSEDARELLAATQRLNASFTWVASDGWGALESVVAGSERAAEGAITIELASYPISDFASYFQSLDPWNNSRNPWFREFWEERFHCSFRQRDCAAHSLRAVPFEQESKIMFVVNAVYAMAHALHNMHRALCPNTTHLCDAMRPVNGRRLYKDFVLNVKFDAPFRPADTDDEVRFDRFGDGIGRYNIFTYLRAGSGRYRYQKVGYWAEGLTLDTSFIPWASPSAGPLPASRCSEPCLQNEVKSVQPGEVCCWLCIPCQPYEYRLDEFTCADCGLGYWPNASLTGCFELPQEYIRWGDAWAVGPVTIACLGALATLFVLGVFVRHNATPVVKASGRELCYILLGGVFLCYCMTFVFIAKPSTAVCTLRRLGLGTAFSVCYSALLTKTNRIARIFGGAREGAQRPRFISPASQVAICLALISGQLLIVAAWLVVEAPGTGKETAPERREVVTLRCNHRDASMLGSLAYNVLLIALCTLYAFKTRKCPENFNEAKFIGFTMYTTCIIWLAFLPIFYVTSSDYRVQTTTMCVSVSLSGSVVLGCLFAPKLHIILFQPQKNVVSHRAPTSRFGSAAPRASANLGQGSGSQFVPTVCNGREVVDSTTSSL

SMILES	IC50 [1] [µM]	Emax [2] [%]	fraction unbound at 4 h [3]	fraction unbound at 4 h [4]	fraction unbound [5]	Kp [6]	Kp uu [7]	IC50 [14] [µM]	IC50 [15] [µM]	IC50 [16] [µM]	IC50 [17] [µM]	IC50 [18] [µM]	IC50 [19] [µM]	IC50 [20] [µM]	further results
NC(=O)c1cc(-c2ccc(F)cc2)n2nc(COc3ccnc(C(F)(F)F)c3)cc2n1	0.794	2.4	0.03	0.01	0.007	4.04	0.86	> 30	> 30	> 30	> 30	> 30	> 30	> 30	clearance [8]: 10 mL/min/kg; half-life ([9]; Sprague-Dawley): 4.28 h; Vd [10]: 3.31 L/kg; clearance [11]: 16.4 mL/min/kg; half-life [12]: 5.53 h; Vd [13]: 6.59 L/kg
C[C@@H]1CN(Cc2cc3nc(C(N)=O)cc(-c4ccc(F)cc4)c3s2)C[C@H](C)O1	0.55	2.3	0.05	0.01	0.005	5.67	0.52	> 30	> 30	> 30	> 30	> 30	> 30	> 30	t1/2 [9]: 1.5 h; Cmax [21]: 1.07 µM; AUC [22]: 5.81 µM; Cmax [23]: 6.09 µM; AUC [24]: 32.9 µM; Kp [25]: 5.67; fCmax [26]: 30.4 nM; fAUC [27]: 165 nM

— ChEMBL document CHEMBL4308859, “Discovery of Novel Central Nervous System Penetrant Metabotropic Glutamate Receptor Subtype 2 (mGlu2) Negative Allosteric Modulators (NAMs) Based on Functionalized Pyrazolo[1,5- a]pyrimidine-5-carboxamide and Thieno[3,2- b]pyridine-5-carboxamide Cores” (J Med Chem, 2018)
